Data reported in US20260008805A1, “ADENOSINE ANALOGS FOR THE TREATMENT OF DISEASE” (BIOINTERVENE, INC., priority 2022, published 2026).

What was measured:
human A3 receptors = molecular target: T1, human A3 receptors (Homo sapiens, UniProt P0DMS8); assay: Adenosine receptor binding assay ([3H]HEMADO competition); settings: Table 1, membranes of HEK-293 cells expressing human A3 receptor, Cheng-Prusoff, read-out: hA3 Ki
T1 construct: expressed in transfected cells; host or cells: HEK-293 cells, stably transfected; membrane preparation
T1 sequence (P0DMS8 1-318): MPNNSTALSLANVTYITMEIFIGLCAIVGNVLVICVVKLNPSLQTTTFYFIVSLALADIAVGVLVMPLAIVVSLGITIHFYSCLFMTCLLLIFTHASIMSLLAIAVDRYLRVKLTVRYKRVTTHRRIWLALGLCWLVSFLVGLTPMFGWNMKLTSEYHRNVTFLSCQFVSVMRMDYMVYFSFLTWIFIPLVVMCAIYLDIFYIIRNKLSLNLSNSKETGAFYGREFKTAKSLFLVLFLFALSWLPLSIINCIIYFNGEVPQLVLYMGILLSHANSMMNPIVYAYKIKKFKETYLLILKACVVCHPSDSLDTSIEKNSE
Text: Materials and Reference Compounds: [^3H] HEMADO (obtained from (ARC, Cat: ART1456) and [3H] DPCPX (obtained from PerkinElmer Cat no. NET974250UC)). IB-MECA was obtained from Tocris (Bristol, UK) and N6-cyclopentyl adenosine (CPA) is obtained from Sigma-Alrich (Poole, UK). Cell culture media, G418 and hygromycin are obtained from Invitrogen (Paisley, UK). Fetal calf serum is obtained from Perbio Science (Cheshire, UK). All other reagents are obtained from Fisher Chemicals (Loughborough, UK).
The method followed is that of Yates L, Clark J H, Martin T J, James S, Broadley K J, Kidd E J. Radioligand binding and functional responses of ligands for human recombinant adenosine A3 receptors. Auton Autacoid Pharmacol. 2006; 26 (2): 191-200. Cells stably transfected with the human adenosine A3 or A1 receptor are grown in Dulbecco's modified Eagles medium with nutrient mixture F12 containing NaHCO3 and Glutamax. Media is supplemented with 10% fetal calf serum, geneticin (G418; 0.67 mg/mL), hygromycin (500 μg/mL) and adenosine deaminase (1 U/mL). Cells are maintained at 37° C. with 5% CO2 in air. Cells are harvested and homogenized in ice-cold Tris buffer [50 mM Tris, 150 mM NaCl, 1 mM ethylenediaminetetraacetic acid (EDTA), pH 7.4] supplemented with the peptidase inhibitors, 4-(2-aminoethyl)benzene sulfonylfluoride (1 mM) and bacitracin (0.1 mg/mL), using a Polytron homogenizer (3×10 s bursts). The homogenate is spun for 10 min (4° C.) at 500 g. The supernatant is retained and the pellet is re-suspended in the buffer, homogenized and spun as above. The combined supernatants are centrifuged for 15 min (4° C.) at 48,000 g. The resultant pellet is re-suspended in the buffer and centrifuged for a second time at 48,000 g. The membrane pellet is then suspended in Tris buffer containing no peptidase inhibitors or adenosine deaminase and stored at −80° C. at a protein concentration of 1 mg/mL.
Binding Assays: Radioligand-binding assays are performed using the adenosine A3 receptor agonist [^3H] HEMADO and the A1 receptor […] [^3H] DPCPX. Binding assays are conducted in a total volume of 100 μL containing a 50 mM Tris, pH 7.4 buffer with or without 10 mM MgCl2, 20 μg membranes and either 4.154 nM [3H] HEMADO (for the A3 receptor) or 1.6065 nM [^3H] DPCPX (for the A1 receptor). Assays are conducted at room temperature for 60 min (A1 receptor) or 120 min (A3 receptor) and terminated by the addition of 2 ml of ice-coldish buffer (50 mM Tris, pH 7.4 with or without 10 mM MgCl2) and rapid filtration over 0.03% polyethylenimine-treated Whatman GF/C filters using a Brandel cell harvester (Semat International Ltd., St Albans, UK). Filters are then ished three times with 2 ml of ice-cold buffer. The filter-bound radioactivity are counted using a Compugamma counter (LKB Wallac, Turku, Finland). Competition experiments are performed to investigate the ability of reference compounds and embodiments of the invention to inhibit [^3H] HEMADO binding. Non-specific binding are determined using the respective compound at its highest concentration.
Data Analysis: The Kd and Bmax values for binding data are calculated based upon the molar amounts of bound and free [^3H] HEMADO. […] IC50 and Ki values and Hill slopes for inhibition of the radioligand binding by the compounds of the invention are calculated from the ligand competition curves using the Excel spreadsheet and the Kd value calculated for either [^3H] HEMADO or [^3H] DPCPX. The results are expressed as a percent of control specific binding and as a percent inhibition of control specific binding obtained in the presence of the compounds of the invention. The IC50 values (concentration causing a half-maximal inhibition of control specific binding) and Hill coefficients (nH) are determined by non-linear regression analysis of the competition curves generated with mean replicate values using Hill equation curve fitting: […]

[1] = molecular target: T2, human adenosine A3 receptor (Homo sapiens, UniProt P0DMS8); assay: Intracellular cAMP levels (inhibition of forskolin-stimulated cAMP production); type: cell-based; settings: Table 1; for EC50: CHO-K1 cells expressing human adenosine A3 receptor, forskolin 10 μM; for cAMP Efficacy (%): maximal response as percentage of the response produced by 100 nM IB-MECA
T2 construct: expressed in transfected cells; host or cells: CHO-K1 cells, stably transfected
T2 sequence (P0DMS8 1-318): T1 sequence (P0DMS8 1-318)
Text: The method followed is that published in Yates L, Clark J H, Martin T J, James S, Broadley K J, Kidd E J. Radioligand binding and functional responses of ligands for human recombinant adenosine A3 receptors. Auton Autacoid Pharmacol. 2006 April; 26 (2): 191-200.
Materials and Cell Culture: Adenosine deaminase is obtained from Roche (Lewes, UK). Forskolin is obtained from Sigma-Aldrich (Poole, UK). The sources of other materials are provided above in Example 1. CHO-K1 cells stably transfected with the human adenosine A3 receptor are grown in Dulbecco's modified Eagles medium with nutrient mixture F12 containing NaHCO3 and Glutamax. Media is supplemented with 10% fetal calf serum, geneticin (G418; 0.67 mg/mL), hygromycin (500 μg/mL) and adenosine deaminase (1 U/mL). Cells are maintained at 37° C. with 5% CO2 in air.
CAMP Measurements: Intracellular cAMP production is measured directly using a non-acetylation cAMP enzyme immunoassay (Amersham Biosciences, Little Chalfont, UK). Cultured CHO cells expressing human adenosine A3 receptors are allowed to plate overnight in 96-well plates in culture medium containing adenosine deaminase. Twenty-four hours later, they are incubated with adenosine analogues or compounds of the invention (0.1 nM-1 μM) for 5 min at 37° C., followed by incubation with forskolin (10 μM) for 10 min. The cells are then lysed with 200 μL of lysis reagent 1 provided with the kit for 10 min to release intracellular CAMP. Aliquots of the supernatants are then transferred to a 96-well microtitre plate coated with donkey anti-rabbit IgG; 100-μL cAMP standards (12.5-3200 fmol/well) are also added to the microtitre plate; 100 μL of rabbit anti-cAMP antibody is added to all wells and incubated at 2-5° C. for 2 h. The antiserum is made up in lysis reagent 2, which sequesters the key component in lysis reagent 1 and ensures that CAMP is free for subsequent analysis. Then 50 μL of cAMP peroxidase conjugate is added to all wells and left to incubate for 60 min at 2-5° C. to allow competition for the antibody between the un-labelled and horse radish peroxidase (HRP)-labelled cAMP. Wells are then ished with buffer and 150 μL of enzyme substrate containing 3,3′,5,5′-tetramethylbenzidine/hydrogen peroxide in 20% (v/v) dimethylformamide is added to each well and left to incubate for 60 min on a Titramax 100 microtitre plate shaker (Heidolph Instruments, Schwabach, Germany) at room temperature for color development. The reaction is stopped by the addition of 100 μL of 1 M sulfuric acid and the optical density (OD) read at 450 nm on a spectrophotometric MRX microplate reader (Dynex Technologies, Chantilly, VA, USA).
Analyses: Each sample/standard was analyzed in duplicate and the resulting OD values averaged. The percent bound (B/B0) for each standard and sample was calculated using the following relationship:
[formula] • where B is the specific OD for standard/sample and B0 is the specific OD for the zero standard. A standard curve was generated by plotting % B/B0 as a function of the log fmol cAMP standard per well. The fmol per well value for cAMP in each sample was then read from the graph. The results are expressed as a percent of control agonist response: (measured response/control response)*100 in the presence of the compounds of the invention. Concentration-response curves for inhibition of cAMP production were constructed for all compounds of the invention and reference compounds. The EC50 values (concentration producing a half-maximal response) were determined by non-linear regression analysis of the concentration-response curves generated with mean replicate values using Hill equation curve fitting, according to the equation:
[formula] • where Y=response, A=left asymptote of the curve, D=right asymptote of the curve, C=compound concentration, and C50=EC50, and nH=slope factor. […]

Row | Structure (SMILES) | Ki (human A3 receptors) | EC50 [1] | cAMP Efficacy (%) [1]
1 | Cc1cc2c(Cl)nc3c(ncn3[C@H]3[C@H](O)[C@H](O)[C@]4(c5ncn(C)n5)C[C@H]34)c2[nH]1 [Compound 2B] | 1.24 nM | 0.17 nM | 104%
2 | Cc1nc2c(Cl)nc3c(ncn3[C@H]3[C@H](O)[C@H](O)[C@]4(c5nnn(C)n5)C[C@H]34)c2[nH]1 [Compound 3B] | 1.27 nM | 1 nM | 31.72%
3 | Cn1nnc([C@@]23C[C@@H]2[C@@H](n2cnc4c5[nH]c(C=O)cc5c(Cl)nc42)[C@H](O)[C@@H]3O)n1 [Compound 4B] | 2.72 nM | 100 nM | 10%
4 | Cn1nnc([C@@]23C[C@@H]2[C@@H](n2cnc4c5[nH]c(CO)cc5c(Cl)nc42)[C@H](O)[C@@H]3O)n1 [Compound 5B] | 2.83 nM | 3 nM | 34.29%
5 | Cc1cc2c(Cl)nc3c(ncn3[C@H]3[C@H](O)[C@H](O)[C@]4(c5ncc[nH]5)C[C@H]34)c2[nH]1 [Compound 6B] | 6.36 nM | 0.14 nM | 105.39%
6 | N#Cc1cc(NCc2cc(Cl)ccc2Cl)c2ncn([C@H]3[C@H](O)[C@H](O)[C@]4(c5ncc[nH]5)C[C@H]34)c2n1 [Compound 8B] | 12.1 nM | 1.87 nM | 104.81%
7 | O[C@H]1[C@H](n2cnc3c(NCc4cc(Cl)ccc4Cl)cc(Cl)nc32)[C@H]2C[C@@]2(c2ncc[nH]2)[C@H]1O [Compound 9B] | 38.6 nM | 4.61 nM | 103.89%
8 | CCNc1cc(Cl)nc2c1ncn2[C@H]1[C@H](O)[C@H](O)[C@]2(c3ncco3)C[C@H]12 [Compound 10B] | 41 nM | 16.1 nM | 70.12%
9 | CCNc1cc(Cl)nc2c1ncn2[C@H]1[C@H](O)[C@H](O)[C@]2(c3ncc[nH]3)C[C@H]12 [Compound 12B] | 31.2 nM | 5.5 nM | 107.37%
10 | CCNc1cc(Cl)nc2c1ncn2[C@H]1[C@H](O)[C@H](O)[C@]2(c3nnn(C)n3)C[C@H]12 [Compound 13B] | 2.1 nM |  | 2%
11 | O[C@H]1[C@H](n2cnc3c(NCC(F)F)cc(Cl)nc32)[C@H]2C[C@@]2(c2ncn[nH]2)[C@H]1O [Compound 14B] | 21.7 nM | 27.2 nM | 89.97%
